Results: patent US12162897B2, “1,4-sulfur-bridged polycyclic compounds containing dihydrobenzofuran structure, its preparation method and application thereof” (Chengdu University, priority 2021, dated 2024)
pIC50: −log10 of the molar value.

Assays:
[1] = tested on: human leukemia cells K562; assay: Cell viability assay, human leukemia cells K562; type: cell-based; conditions: 5000 cells per well, 96-well plate, 48 hours with compound, mean of repeats
Protocol: (§1) Specific experimental operations: 5000 human leukemia cells K562 and human lung cancer cells A549 are seeded into 96-well cell culture plates respectively to grow for 24 hours. Then, a predetermined concentration of the above synthesized compounds are added respectively, wherein the antitumor drug cisplatin is used as a control for 48 hours. The mean 50% inhibitory concentration (IC50) of all compounds is then determined. Each concentration is repeated at least three times, and all experiments are repeated three times, and the average results obtained are shown in Table 1.

[2] = tested on: human lung cancer cells A549; assay: Cell viability assay, human lung cancer cells A549; type: cell-based; conditions: 5000 cells per well, 96-well plate, 48 hours with compound, mean of repeats
Protocol: as §1

Row | SMILES | pIC50 ([1]; Homo sapiens, K562, 48 h) | pIC50 ([2]; Homo sapiens, A549, 48 h) | pIC50 [1] | pIC50 [2]
1 | C[C@@]12S[C@@](c3ccccc3)(NC1=O)[C@]1([N+](=O)[O-])Oc3c(F)cccc3[C@H]21 [I-ca] | 4.72 | 4.24 | – | –
2 | C[C@@]12S[C@@](c3cccc(Br)c3F)(NC1=O)[C@]1([N+](=O)[O-])Oc3ccccc3[C@H]21 [I-ag] | – | – | 4.52 | 4.35
3 | C[C@@]12S[C@@](c3ccc(F)cc3)(NC1=O)[C@]1([N+](=O)[O-])Oc3ccccc3[C@H]21 [I-ac] | 4.13 | 4.23 | – | –
4 | C[C@@]12S[C@@](c3ccccn3)(NC1=O)[C@]1([N+](=O)[O-])Oc3ccccc3[C@H]21 [I-ai] | 4.49 | 4.62 | – | –
5 | C[C@@]12S[C@@](c3ccccc3)(NC1=O)[C@]1([N+](=O)[O-])Oc3ccc([N+](=O)[O-])cc3[C@H]21 [I-ha] | 4.65 | 4.17 | – | –
6 | C[C@@]12S[C@@](c3cccc(Br)c3F)(NC1=O)[C@]1([N+](=O)[O-])Oc3ccccc3[C@H]21 [I-af] | 4.33 | 4.40 | – | –
7 | COc1ccc2c(c1)O[C@]1([N+](=O)[O-])[C@H]2[C@]2(C)S[C@@]1(c1ccccc1)NC2=O [I-ja] | 5.59 | 5.32 | – | –
8 | COc1cc(Br)cc2c1O[C@]1([N+](=O)[O-])[C@H]2[C@]2(C)S[C@@]1(c1ccccc1)NC2=O [I-la] | 5.51 | 4.81 | – | –
9 | CC(C)(C)c1ccc2c(c1)[C@@H]1[C@]3(C)S[C@@](c4ccccc4)(NC3=O)[C@]1([N+](=O)[O-])O2 [I-ka] | 4.53 | 4.48 | – | –
10 | N.N.[Cl][Pt][Cl] [Cisplatin, cisplatin, reference compound] | – | – | 4.69 | 4.62
11 | C[C@@]12S[C@@](c3ccc4ccccc4n3)(NC1=O)[C@]1([N+](=O)[O-])Oc3ccccc3[C@H]21 [I-ah] | 4.23 | 4.69 | – | –

Second part, led by results:

Row | pIC50 ([1]; Homo sapiens, K562, 48 h) | pIC50 ([2]; Homo sapiens, A549, 48 h) | SMILES | pIC50 [1] | pIC50 [2]
12 | 4.89 | 4.49 | C[C@@]12S[C@@](c3ccccc3)(NC1=O)[C@]1([N+](=O)[O-])Oc3ccc(F)cc3[C@H]21 [I-ba] | – | –
13 | 4.28 | 4.24 | C[C@@]12S[C@@](c3ccccc3F)(NC1=O)[C@]1([N+](=O)[O-])Oc3ccccc3[C@H]21 [I-ab] | – | –
14 | 4.51 | 4.17 | C[C@@]12S[C@@](c3ccccc3)(NC1=O)[C@]1([N+](=O)[O-])Oc3ccc(Br)cc3[C@H]21 [I-fa] | – | –
15 | 5.15 | 4.51 | C[C@@]12S[C@@](c3ccccc3)(NC1=O)[C@]1([N+](=O)[O-])Oc3cc(Br)ccc3[C@H]21 [I-ga] | – | –
16 | 4.30 | 4.40 | C[C@@]12S[C@@](c3ccc(Cl)cc3)(NC1=O)[C@]1([N+](=O)[O-])Oc3ccccc3[C@H]21 [I-ad] | – | –
17 | 4.91 | 4.55 | C[C@@]12S[C@@](c3ccccc3)(NC1=O)[C@]1([N+](=O)[O-])Oc3ccccc3[C@H]21 [I-aa] | – | –
18 | 4.99 | 4.46 | C[C@@]12S[C@@](c3ccccc3)(NC1=O)[C@]1([N+](=O)[O-])Oc3cccc(Cl)c3[C@H]21 [I-da] | – | –
19 | 4.26 | 4.34 | C[C@@]12S[C@@](c3ccc(Br)cc3)(NC1=O)[C@]1([N+](=O)[O-])Oc3ccccc3[C@H]21 [I-ae] | – | –
20 | 4.67 | 4.34 | C[C@@]12S[C@@](c3ccccc3)(NC1=O)[C@]1([N+](=O)[O-])Oc3ccc(Cl)cc3[C@H]21 [I-ea] | – | –
21 | 4.84 | 4.48 | Cc1ccc2c(c1)O[C@]1([N+](=O)[O-])[C@H]2[C@]2(C)S[C@@]1(c1ccccc1)NC2=O [I-ia] | – | –
